According to ChEMBL document CHEMBL1821677, “Identification of novel allosteric modulators for the G-protein coupled US28 receptor of human cytomegalovirus” (Bioorg Med Chem Lett, 2011):
Active and inactive are the calls of the source. No cut-off for these calls is given here.

Experiments:
[1] = tested on: G-protein coupled receptor homolog US28 (Human cytomegalovirus); assay: Efficacy at HCMV TB40/E US28 expressed in human HEK cells assessed as Elk-1 activation preincubated for 1 hrs measured after 20 to 24 hrs by PathDetect trans Elk-1 reporter gene assay relative to control; settings: Human betaherpesvirus 5, HEK293
[2] = Inverse agonist activity at HCMV TB40/E US28 expressed in human HEK cells assessed as Elk-1 activation preincubated for 1 hrs measured after 20 to 24 hrs by luciferase reporter gene assay; type: functional, cell-based; settings: Human betaherpesvirus 5, TB40/E, HEK293
[3] = Cytotoxicity against mock transfected human HEK cells at 10 uM after 20 to 24 hrs by Cell titer cell proliferation assay; type: cell-based; settings: hek293, 10 µM
[4] = molecular target: D(2) dopamine receptor (Homo sapiens) (UniProt P14416); assay: Binding affinity to dopamine D2L receptor
D(2) dopamine receptor (Homo sapiens), sequence (P14416 whole entry): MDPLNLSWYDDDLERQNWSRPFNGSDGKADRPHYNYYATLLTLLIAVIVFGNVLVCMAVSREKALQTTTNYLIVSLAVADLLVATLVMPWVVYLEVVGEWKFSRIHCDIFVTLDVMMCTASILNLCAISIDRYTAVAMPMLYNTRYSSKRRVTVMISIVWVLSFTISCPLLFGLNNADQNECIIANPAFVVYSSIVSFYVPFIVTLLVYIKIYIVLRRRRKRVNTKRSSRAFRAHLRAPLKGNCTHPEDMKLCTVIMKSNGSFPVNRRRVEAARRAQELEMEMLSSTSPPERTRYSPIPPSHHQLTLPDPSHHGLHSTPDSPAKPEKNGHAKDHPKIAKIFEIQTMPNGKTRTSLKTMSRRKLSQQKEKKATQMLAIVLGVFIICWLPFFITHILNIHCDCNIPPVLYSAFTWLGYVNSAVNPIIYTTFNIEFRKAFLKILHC

[5] = molecular target: D(2) dopamine receptor (Homo sapiens) (UniProt P14416); assay: Binding affinity to human dopamine D2L receptor expressed in HEK cells assessed as Elk-1 activation preincubated for 1 hrs measured after 20 to 24 hrs by PathDetect trans Elk-1 reporter gene assay; type: cell-based; settings: HEK293

Compound | Efficacy [1] [%] | EC50 ([2]; read-out: EC50) [nM] | EC50 ([2]; read-out: pEC50 (converted)) [nM] | Activity [3] | Activity [4] [µM] | Activity [5]
CCCC[C@@H]1Cc2ccc(F)cc2[C@@H](c2ccccc2)N1 (relative stereo) | 15 | 2000 | 2000 | – | – | –
CC1(CCOC(=O)Cc2ccccc2)Cc2ccccc2CN1C(=O)Cc1ccccc1 (configuration not stated) | -51 | 7500 | 7590 | Toxic | – | –
CCCC[C@@H]1Cc2c(Cl)cccc2[C@@H](c2ccccc2)N1 (relative stereo) | 16 | 1400 | 1410 | – | – | –
CC1(CCOC(=O)c2ccccc2)Cc2ccccc2CN1C(=O)c1ccccc1 (configuration not stated) | -70 | 13500 | 13500 | Toxic | – | –
N#CC(CCCN1CCC(O)(c2ccc(Cl)cc2)CC1)(c1ccccc1)c1ccccc1 [BERLEX COMPOUND] | -22 | 4500 | 4570 | – | 2 | –
CC1(COC(=O)c2ccccc2)Cc2ccccc2CN1C(=O)c1ccccc1 (configuration not stated) | -62 | 8500 | 8510 | Toxic | – | –
CCCC[C@H]1Cc2c(Cl)cccc2[C@@H](c2ccccc2)N1 (relative stereo) | 21 | 130 | 129 | – | – | Active
CCCC[C@H]1Cc2ccc(Cl)cc2[C@@H](c2ccccc2)N1 (relative stereo) | 12 | 7800 | 7760 | – | – | –
CC1(COC(=O)Cc2ccccc2)Cc2ccccc2CN1C(=O)Cc1ccccc1 (configuration not stated) | -37 | 3400 | 3470 | Non-toxic | – | –
CCCC[C@H]1Cc2ccccc2[C@@H](c2ccccc2)N1 (relative stereo) | 22 | 280 | 275 | – | – | Active
CC1(CO)Cc2ccccc2C(=O)N1c1ccccc1 (configuration not stated) | 41 | 4400 | 4370 | – | – | –
CC1(COC(=O)c2ccco2)Cc2ccccc2CN1C(=O)c1ccco1 (configuration not stated) | -18 | 7400 | 7410 | Non-toxic | – | –
CSc1ccc2c(c1)C(N1CCN(C)CC1)Cc1ccccc1S2 (configuration not stated) [METITEPINE] | 10 | 350 | 355 | – | – | –
CCCCCCCCCC(=O)N(CCN(C)C)C1CCCCC12Cc1ccccc1C(=O)N2 (configuration not stated) | -22 | 4800 | 4790 | – | – | –
CCC[C@H]1Cc2c(Cl)cccc2[C@@H](c2ccccc2)N1 (relative stereo) | 27 | 1500 | 1550 | – | – | –
CCCCCC[C@H]1Cc2c(Cl)cccc2[C@@H](c2ccccc2)N1 (relative stereo) | 21 | 2300 | 2290 | – | – | –
CC1(CCO)Cc2ccccc2C(=O)N1c1ccccc1 (configuration not stated) | -14 | 1000 | 1020 | Non-toxic | – | –
CCCC[C@H]1Cc2ccc(F)cc2[C@@H](c2ccccc2)N1 (relative stereo) | 15 | 1800 | 1780 | – | – | –
CCCCCCCCCC(=O)N(CCN(C)C)CC1(C)Cc2ccccc2C(=O)N1 (configuration not stated) | -20 | 1500 | 1510 | Non-toxic | – | –
